Reference: patent US20230123601A1, “PHARMACEUTICAL COMBINATION OF ANTIVIRAL AGENTS TARGETING HBV AND/OR AN IMMUNE MODULATOR FOR TREATMENT OF HBV” (priority 2019, published 2023)
Where two headings read alike, the source gives them in different places. Strand notation (5' to 3'): a small letter for the sugar, then the base; units joined by * are phosphorothioate-linked, units joined directly phosphodiester-linked; [ ] holds rarer units or linkages, { } end groups; capitals alone tell only the bases. {MOP} = methoxy, phosphonate-4'-oxy on the 2'-O-methyluridine at position 1; m = 2'-O-methyl; f = 2'-fluoro

Columns and labels:
[1] = test system: HBV Genotype A S ORF target sites fused to reporter gene; assay: psiCHECK-2 dual-luciferase reporter mismatch assay in HeLa cells; format: cell-based
Description: A psiCHECK-2 dual-luciferase reporter system was utilized to evaluate the effects of a mismatch at a selected position in each of HBV-217, HBV-219, HBV-254, HBV-255, and HBV-258. The psiCHECK vector enables monitoring of changes in expression of a target gene fused to a reporter gene, where active RNAi degrades the fusion construct to produce a corresponding decrease in reporter signal. The diagram in FIG. 16 generically depicts the vector utilized in these assays. The parent partial reporter sequence contained 120 base-pair fragments from Genotype A (GenBank: AM282986.1) around target sites of interest in the S ORF. […]
The psiCHECK2 reporter assays with each oligonucleotide were conducted over a three-day period using a 6-point, 5-fold serial dilution starting at 1 nM transfected in HeLa cells. […] The cells were then incubated at 37° C. in a CO2 incubator until the cells were ready to harvest and assay for the target gene. On day 3, 100 μL of Dual-Glo Reagent was added to each well, mixed and incubated for 10 minutes before reading the luminescence. A further 100 μL of Dual-Glo Stop & Glo was added to each well, mixed and incubated for 10 minutes before reading the luminescence. […] The EC50s values determined for each oligonucleotide are shown in Table 15 with additional specifications.

HBV [2] = assay: HBsAg levels in HDI-mice after subcutaneous oligonucleotide; format: in vivo
Description: HBsAg levels were monitored in both oligonucleotide treated and untreated control mice for a period spanning 147 days.

HBV [3] = format: in vivo; settings: HDI mice; for circulating HBsAg / hepatic viral RNAs: entecavir 500 ng/kg PO daily for 14 days alone
Procedure: The RNAi oligonucleotides targeting the S antigen impact both the viral polymerase and HBsAg protein. In this study, the combinational effects of HBV(s)-219P2 as a monotherapy and combinational treatment with entecavir was explored in an HBV-expressing mouse (HDI model) for antiviral activity.
Mice were administered daily oral dosing of 500 ng/kg Entecavir (ETV) for 14 days. A single subcutaneous administration of HBV(s)-219P2 took place. Circulating viral load (HBV DNA) was measured by qPCR (FIG. 25A), plasma HBsAg level was measured by ELISA (FIG. 25B), and liver HBV mRNA and pgRNA levels were measured by qPCR.

Row | Compound | EC50 ([1]; mismatch duplex, single mismatch to reporter plasmid, read-out: MM EC50s) | EC50 ([1]; parent duplex, 100% homology to reporter plasmid, read-out: Parent EC50s) | HBsAg levels (HBV [2]; HDI-mice, single subcutaneous dose evaluation) | HBsAg levels (HBV [2]; mice, QW×3, 3 mg/kg subcutaneous, monitored 147 days) | mean decrease in HBV DNA detected in plasma relative to PBS (HBV [3]; entecavir 500 ng/kg PO daily for 14 days) | circulating HBsAg (HBV [3]) | hepatic viral RNAs (HBV [3]) | circulating HBsAg (HBV [3]; listed as entecavir) | hepatic viral RNAs (HBV [3]; listed as entecavir)
1 | HBV-254: HBsAg-targeting duplex oligonucleotide, sense SEQ ID NO: 55, antisense SEQ ID NO: 56 (sense GUGGUGGACUUCUCUCAAUAGCAGCCGAAAGGCUGC; antisense {MOP}-mU*fA*fU*mUfGmAfGfAmGfAmAfGmUfCmCfAmCmCfAmC*mG*mG; sense: chemistry not given here; tetraloop form) | 0.096 nM | 0.037 nM | systematically reduced HBsAg levels in mice with increasing dosage | Diminished HBsAg levels persisted in treated mice throughout the entirety of the study |  |  |  |  | 
2 | C=C1[C@H](CO)[C@@H](O)C[C@@H]1n1cnc2c(=O)[nH]c(N)nc21 [Entecavir] |  |  |  |  | ~1.6 log | no efficacy | no efficacy | No significant decrease | No significant decrease
